Laboratory results published in publication PMC6271619, “Synthesis, Half-Wave Potentials and Antiproliferative Activity of 1-Aryl-substituted Aminoisoquinolinequinones” (Molecules, 2014).

How the values were obtained:
[1] = test system: AGS human gastric adenocarcinoma cells; assay: MTT cell growth inhibition assay, AGS gastric adenocarcinoma cells, 72 h exposure; format: cell-based; conditions: for IC50: human gastric adenocarcinoma cell line, MTT, 72 h, mean of six determinations, read-out: IC50 ± SEM AGS; for selectivity index (IS), AGS: MRC-5 relative to AGS
[2] = test system: HL-60 human promyelocytic leukemia cells; assay: MTT cell growth inhibition assay, HL-60 promyelocytic leukemia cells, 72 h exposure; format: cell-based; conditions: for IC50: Homo sapiens, HL-60, promyelocytic leukemia cell line, MTT, 72 h, mean of six determinations, read-out: IC50 ± SEM HL-60
[3] = Cyclic voltammetry, first half-wave potential; format: physicochemical; conditions: for −E^I1/2: sign inverted, 0.1 M tetraethylammonium tetrafluoroborate, sweep rate 100 mV s^−1; for −E^I1/2 / E^I1/2 (first half-wave potential): acetonitrile, Pt electrode, vs non-aqueous Ag/Ag+
Protocol: The redox potentials of the members of the series were measured by cyclic voltammetry in acetonitrile as solvent, at room temperature, using a platinum electrode and 0.1 M tetraethylammonium tetrafluoroborate as the supporting electrolyte. […] The voltammograms were run in the potential range 0–2.0 V versus non-aqueous Ag/Ag+. The first half-wave potential values, E^I1/2, evaluated from the voltammograms obtained at a sweep rate of 100 mV s^−1, are summarized in Table 3.

[4] = test system: MRC-5 normal human lung fibroblasts; assay: MTT cell growth inhibition assay, MRC-5 normal lung fibroblasts, 72 h exposure; conditions: MRC5, 72 h, read-out: IC50 ± SEM MRC-5
Protocol: Aminoisoquinolinequinones 5a–h and 6a–f were evaluated for in vitro antiproliferative activity against normal human lung fibroblast MRC-5 and two human cancer cells lines: AGS gastric adenocarcinoma and HL-60 promyelocytic leukemia cells, in 72 h drugs exposure assays. The antiproliferative activity of the new compounds was measured using conventional microculture tetrazolium reduction assays [25, 26, 27].
The cell lines used in this work were obtained from the American Type Culture Collection (ATCC, Manasas, VA, USA). […] The cells were stored in medium containing 10% glycerol in liquid nitrogen. […] Cells were sub-cultured once a week and the medium was changed every two days. Cells were grown in the following media: MRC-5 in Eagle minimal essential medium (EMEM), AGS cells in Ham F-12, and HL-60 in suspension in RPM1. The EMEM medium contained 2 mM L-glutamine, 1 mM sodium pyruvate and 1.5 g/L sodium hydrogen carbonate. Ham F-12 was supplemented with 2 mM L-glutamine and 1.5 g/L sodium hydrogen carbonate. RPM1 medium containing 1mM sodium pyruvate and 2.0 g/L sodium bicarbonate. […] For the experiments, cells were plated at a density of 50,000 cells/mL in 96-well plates. One day after seeding, the cells were treated with the medium containing the compounds at concentrations ranging from 0 up to 100 μM during 3 days. […] The compounds were dissolved in DMSO (1% final concentration) and complete medium. Untreated cells (medium containing 1% DMSO) were used as controls. At the end of the incubation, the MTT reduction (3-(4,5-dimethylthiazol-2-yl)-2,5-diphenyltetrazolium bromide) assay was carried out to determine cell viability. The final concentration of MTT was 1 mg/mL. The culture medium containing the compounds under evaluation, was removed from each well by means by vacuum aspiration before adding the MTT solution. MTT metabolite was dissolved adding 100 µL of ethanol (acidified with HCl). The plates were shaken for 10 min and the absorbance was measured at 550 nm using a Universal Microplate Reader (ELx800, Bio-Tek Instruments Inc., Winnoski, VT, USA). Six replicates for each concentration were used and the values were averaged. […] The IC50 value was obtained adjusting the dose-response curve to a sigmoidal model (a + (b − a)/1 + 10^(x − c)), where c = log IC50.

Row | Structure (SMILES) | IC50 [1] | IC50 [2] | −E^I1/2 [3] | melting point | IC50 [4] | E^I1/2 (first half-wave potential) [3] | antiproliferative activity on AGS cancer cell line (in words) ([1]; effect of phenyl group inserted at 1-position of 5b) | selectivity index (IS), AGS [1] | selectivity index (IS), HL-60 ([2]; MRC-5 relative to HL-60) | E^I1/2 (half-wave potential) [3]
1 | COC(=O)c1c(C)nc(-c2ccco2)c2c1C(=O)C=C(Nc1ccc(OC)cc1)C2=O [5h, Methyl 1-(2-furan-2-yl)-7-(4-methoxyphenylamino)-3-methyl-5,8-dioxo-5,8-dihydroisoquinoline-4-carboxylate] | 1.83 ± 0.11 µM | 8.04 ± 0.49 µM | 577 mV | 144 to 146 °C | 4.58 ± 0.35 µM |  |  |  |  | 
2 | COC(=O)c1c(C)nc(-c2ccccc2)c2c1C(=O)C=C(Nc1ccccc1)C2=O [5c, Methyl 3-methyl-5,8-dioxo-1-phenyl-7-(phenylamino)-5,8-dihydroisoquinoline-4-carboxylate] | 2.52 ± 0.17 µM | 4.39 ± 0.26 µM | 560 mV | 169.9 to 171.4 °C | 5.91 ± 0.36 µM |  |  |  |  | 
3 | COC(=O)c1c(C)nc(-c2cccs2)c2c1C(=O)C=C(Nc1ccccc1)C2=O [5e, Methyl 3-methyl-5,8-dioxo-7-(phenylamino)-1-(thiophen-2-yl)-5,8-dihydroisoquinoline-4-carboxylate] | 4.24 ± 0.21 µM | 5.19 ± 0.31 µM | 565 mV | 163.3 to 165.3 °C | 9.89 ± 0.51 µM |  |  |  |  | 
4 | COC(=O)c1c(C)nc(-c2ccco2)c2c1C(=O)C=CC2=O [3d, Methyl 1-(furan-2-yl)-3-methyl-5,8-dioxo-5,8-dihydroisoquinoline-4-carboxylate] |  |  | 415 mV | 159.5 to 160.5 °C |  |  |  |  |  | 
5 | CC(=O)c1c(C)nc(-c2cccs2)c2c1C(=O)C=C(Nc1ccccc1)C2=O [6c, 4-Acetyl-3-methyl-7-(phenylamino)-1-(thiophen-2-yl)isoquinoline-5,8-dione] | > 100 µM | > 100 µM | 576 mV | 93.5 to 94.5 °C | > 100 µM |  |  |  |  | 
6 | COC(=O)c1c(C)nc(-c2ccco2)c2c1C(=O)C=C(Nc1ccccc1)C2=O [5g, Methyl 1-(2-furan-2-yl)-3-methyl-5,8-dioxo-7-(phenylamino)-5,8-dihydroisoquinoline-4-carboxylate] | 1.79 ± 0.11 µM | 5 ± 0.35 µM | 554 mV | 248 to 249 °C | 4.72 ± 0.29 µM |  |  |  |  | 
7 | COC(=O)c1c(C)nc(-c2ccccc2)c2c1C(=O)C=CC2=O [3b, Methyl 3-methyl-5,8-dioxo-1-phenyl-5,8-dihydroisoquinoline-4-carboxylate] |  |  | 399 mV | 175 to 176.5 °C |  |  |  |  |  | 
8 | COC(=O)c1c(C)ncc2c1C(=O)C=CC2=O [3a] |  |  | 352 mV |  |  | −352 mV |  |  |  | 
9 | COC(=O)c1c(C)ncc2c1C(=O)C=C(Nc1ccc(OC)cc1)C2=O [5b] | 1.1 ± 0.1 µM | 3.8 ± 0.07 µM | 551 mV |  | 2.8 ± 0.8 µM |  |  |  |  | 
10 | COc1ccc(NC2=CC(=O)c3c(C(C)=O)c(C)nc(-c4ccccc4)c3C2=O)cc1 [6e, 4-Acetyl-7-(4-methoxyphenylamino)-3-methyl-1-phenylisoquinoline-5,8-dione] | 4.66 ± 0.28 µM | 9.36 ± 0.72 µM | 570 mV | 162 to 163 °C | 16.1 ± 1.11 µM |  |  |  |  | 
11 | COC(=O)c1c(C)nc(-c2cccs2)c2c1C(=O)C=C(Nc1ccc(OC)cc1)C2=O [5f, Methyl 7-(4-methoxyphenylamino)-3-methyl-5,8-dioxo-1-(thiophen-2-yl)-5,8-dihydroisoquinoline-4-carboxylate] | 3.28 ± 0.13 µM | 10.26 ± 0.09 µM | 583 mV | 214 to 216 °C | 9.19 ± 0.53 µM |  |  |  |  | 
12 | CC(=O)c1c(C)nc(-c2ccco2)c2c1C(=O)C=CC2=O [4d, 4-Acetyl-1-(furan-2-yl)-3-methylisoquinoline-5,8-dione] |  |  | 384 mV | 159 to 160 °C |  |  |  |  |  | 
13 | COC(=O)c1c(C)nc(-c2ccccc2)c2c1C(=O)C=C(Nc1ccc(OC)cc1)C2=O [5d, Methyl 7-(4-methoxyphenylamino)-3-methyl-5,8-dioxo-1-phenyl-5,8-dihydroisoquinoline-4-carboxylate] | > 100 µM | > 100 µM | 583 mV | 202 to 203.5 °C | > 100 µM |  | suppression of the antiproliferative activity |  |  | 
14 | CC(=O)c1c(C)ncc2c1C(=O)C=CC2=O [4a, 4-Acetyl-3-methylisoquinoline-5,8-dione] |  |  | 344 mV | 146 to 148 °C |  | −344 mV |  |  |  | 
15 | COC(=O)c1c(C)nc(-c2cccs2)c2c1C(=O)C=CC2=O [3c, Methyl 3-methyl-5,8-dioxo-1-(thiophen-2-yl)-5,8-dihydroisoquinoline-4-carboxylate] |  |  | 392 mV | 140 to 142.5 °C |  |  |  |  |  | 
16 | COC(=O)c1c(C)ncc2c1C(=O)C=C(Nc1ccccc1)C2=O [5a] | 1.1 ± 0.03 µM | 14.8 ± 0.74 µM | 563 mV |  | 2.7 ± 0.6 µM |  |  |  |  | 
17 | CC(=O)c1c(C)nc(-c2ccco2)c2c1C(=O)C=C(Nc1ccccc1)C2=O [6d, 4-Acetyl-1-(2-furyl)-3-methyl-7-(phenylamino)isoquinoline-5,8-dione] | 1.79 ± 0.11 µM | 8.19 ± 0.57 µM | 533 mV | 187 to 188.5 °C | 5.72 ± 0.24 µM |  |  |  |  | 
18 | CC(=O)c1c(C)nc(-c2cccs2)c2c1C(=O)C=CC2=O [4c, 4-Acetyl-3-methyl-1-(thiophen-2-yl)isoquinoline-5,8-dione] |  |  | 430 mV | 161.5 to 163 °C |  |  |  |  |  | 
19 | CC(=O)c1c(C)nc(-c2ccccc2)c2c1C(=O)C=C(Nc1ccccc1)C2=O [6b, 4-Acetyl-3-methyl-1-phenyl-7-(phenylamino)isoquinoline-5,8-dione] | 2.21 ± 0.09 µM | 4.74 ± 0.37 µM | 588 mV | 181.5 to 183 °C | 5.51 ± 0.22 µM |  |  |  |  | 
20 | COc1ccc(NC2=CC(=O)c3c(C(C)=O)c(C)nc(-c4cccs4)c3C2=O)cc1 [6f, 4-Acetyl-7-(4-methoxyphenylamino)-3-methyl-1-(thiophen-2-yl)isoquinoline-5,8-dione] | 4.28 ± 0.21 µM | > 100 µM | 576 mV | 188.5 to 190 °C | > 100 µM |  |  | > 23 |  | 
21 | CC(=O)c1c(C)nc(-c2ccccc2)c2c1C(=O)C=CC2=O [4b, 4-Acetyl-3-methyl-1-phenylisoquinoline-5,8-dione] |  |  | 416 mV | 162.5 to 164 °C |  |  |  |  |  | 
22 | CC(=O)c1c(C)ncc2c1C(=O)C=C(Nc1ccccc1)C2=O [6a, 4-Acetyl-3-methyl-7-(phenylamino)isoquinoline-5,8-dione] | 1.19 ± 0.07 µM | 1.24 ± 0.06 µM | 464 mV | 178 to 180 °C | 3.67 ± 0.22 µM | −464 mV |  | 3.08 | 2.96 | -464 mV
